Test results as given in patent US20230364057A1, “BACTERIAL DNA GYRASE INHIBITORS AND METHODS OF USE THEREOF” (THE FLORIDA INTERNATIONAL UNIVERSITY BOARD OF TRUSTEES, priority 2022, published 2023).
Several values for one entry are separate records, joined by “and”; a condition that tells them apart may be missing. Identical values can stand only once. Entries after “also recorded” stand apart in the source; their conditions may differ. Like-named read-outs stand apart in the source and are kept apart here.

Columns and labels:
in vitro [1] = settings: human
E. coli DNA gyrase [2] = biological target: T1, E. coli DNA gyrase (Escherichia coli (strain K12), UniProt P0AES4+P0AES6); assay: biochemical; format: biochemical
M. abscessus = assay: MIC against M. abscessus; format: cell-based, Mycobacterium abscessus; settings: Mycobacteroides abscessus
S. aureus (ATCC 14775) = assay: Minimum inhibitory concentration, broth microdilution; settings: Staphylococcus aureus
E. coli (ATCC 25922) = assay: as above; settings: for MIC: Escherichia coli
Method: (§2) Antibacterial minimum inhibitory concentrations (MICs) were obtained from three independent experiments using broth microdilution methods in 96-well plates according to Clinical and Laboratory Standards Institute guidelines. Cells were culture from singles colonies in MHIIB medium for 24 h at 37° C. in agitation (200 RPM). The cultures were then diluted using the same media to reach an OD600 of 0.1. Then, 50 µL of the diluted cultures were added to the plates holding 50 µL of serially diluted compounds in MHIIB. The plates were incubated at 37° C. for 20 h. The starting inoculum was fixated to 10^5 colony-forming units per ml.

E. coli DNA gyrase [3] = biological target: T1, E. coli DNA gyrase; assay: DNA gyrase mediated DNA cleavage assay; format: biochemical; settings: pBR322
Outline: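 Supercoiled pBR322 (250 ng) incubated with 50 nM E. coli gyrase, 1.75 mM ATP and 200 µM compound in Tris-HCl/KCl/MgCl2/DTT/BSA/glycerol buffer, 37° C, 15 min. Complexes trapped with SDS and proteinase K (37° C, 1 h); cleavage products resolved on ethidium-stained agarose gel.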

CDF1 mice = settings: 800 mg/kg, 5 days, results of NCI DTP; cited from earlier work
[4] = test system: NCI panel of 60 cancer cell lines; settings: up to 1 mM; results of NCI DTP; cited from earlier work
Mtb = Mtb whole cell assay (% inhibition, MIC); format: cell-based, Mycobacterium tuberculosis; settings: Mycobacterium tuberculosis
in vitro [5] = settings: mouse
E. coli DNA gyrase [6] = biological target: T1, E. coli DNA gyrase; assay: Agarose gel-based DNA gyrase inhibition assay; format: biochemical; settings: for IC50: gel-based, read-out: IC50 against E. coli DNA gyrase
Method: 100 ng of DNA gyrase was used to supercoil the rx pAB1 in the presence of different concentrations of a gyrase inhibitor. […] Samples were analyzed by electrophoresis in 1% w/v agarose gels followed by ethidium bromide staining and photographed under UV light.

Mtb DNA gyrase = Mtb DNA gyrase (Mycobacterium tuberculosis (strain ATCC 25618 / H37Rv), UniProt P9WG45+P9WG47); assay: Mtb DNA gyrase inhibition assay (gel-based); format: biochemical
Outline: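 Supercoiling by 100 ng Mtb gyrase of 400 ng relaxed pAB1 in buffer with 1.75 mM ATP, pH 7.5, across inhibitor concentrations. Reactions ran 15 min at 37° C, stopped with SDS/EDTA. Products resolved on 1% agarose, ethidium bromide-stained; IC50 determined from gels.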

Mtb gyrase = Mtb gyrase (Mycobacterium tuberculosis (strain ATCC 25618 / H37Rv), UniProt P9WG45+P9WG47); assay: Mtb gyrase mediated DNA cleavage assay; format: biochemical; settings: pBR322, 50-100 µM
Method: The IC50 against E. coli (A) and Mtb (C) gyrase were determined using the gel-based gyrase inhibition assays. The gyrase mediated DNA cleavage assays (B and D) were performed using pBR322. (A) 229 inhibits E. coli gyrase. Lane 1, rx pAB1. […] Lane 1, rx pAB1. […] 100 µM of CPDs were used. Symbols rx, nk, In, and sc represent relaxed, nicked, linear, and supercoiled DNA, respectively.

E. coli topoisomerase IV = E. coli topoisomerase IV (Escherichia coli (strain K12), UniProt P0AFI2+P20083); assay: E. coli topoisomerase IV decatenation; format: biochemical; settings: read-out: IC50 against E. coli topoisomerase IV
Chain of E. coli topoisomerase IV (P0AFI2 whole entry, looked up): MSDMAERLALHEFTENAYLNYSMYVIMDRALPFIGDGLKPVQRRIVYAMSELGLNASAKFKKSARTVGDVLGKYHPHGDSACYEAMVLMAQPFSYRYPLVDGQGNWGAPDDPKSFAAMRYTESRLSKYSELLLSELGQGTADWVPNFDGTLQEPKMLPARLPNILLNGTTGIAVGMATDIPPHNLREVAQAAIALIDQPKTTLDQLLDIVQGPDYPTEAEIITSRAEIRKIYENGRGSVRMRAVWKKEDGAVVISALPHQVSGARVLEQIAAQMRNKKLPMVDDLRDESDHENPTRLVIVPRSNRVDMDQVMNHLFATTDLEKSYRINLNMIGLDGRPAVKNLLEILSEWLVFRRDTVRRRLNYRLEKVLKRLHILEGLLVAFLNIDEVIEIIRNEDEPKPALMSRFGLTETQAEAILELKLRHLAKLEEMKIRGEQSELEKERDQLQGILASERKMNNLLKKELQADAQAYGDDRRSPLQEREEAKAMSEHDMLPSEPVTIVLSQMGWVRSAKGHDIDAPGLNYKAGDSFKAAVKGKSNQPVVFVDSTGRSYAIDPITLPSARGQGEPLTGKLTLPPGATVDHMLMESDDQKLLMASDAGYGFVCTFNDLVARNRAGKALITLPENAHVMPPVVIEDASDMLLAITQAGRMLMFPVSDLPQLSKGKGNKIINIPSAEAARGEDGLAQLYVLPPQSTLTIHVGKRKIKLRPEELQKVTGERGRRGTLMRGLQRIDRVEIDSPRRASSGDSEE
Chain of E. coli topoisomerase IV (P20083 whole entry, looked up): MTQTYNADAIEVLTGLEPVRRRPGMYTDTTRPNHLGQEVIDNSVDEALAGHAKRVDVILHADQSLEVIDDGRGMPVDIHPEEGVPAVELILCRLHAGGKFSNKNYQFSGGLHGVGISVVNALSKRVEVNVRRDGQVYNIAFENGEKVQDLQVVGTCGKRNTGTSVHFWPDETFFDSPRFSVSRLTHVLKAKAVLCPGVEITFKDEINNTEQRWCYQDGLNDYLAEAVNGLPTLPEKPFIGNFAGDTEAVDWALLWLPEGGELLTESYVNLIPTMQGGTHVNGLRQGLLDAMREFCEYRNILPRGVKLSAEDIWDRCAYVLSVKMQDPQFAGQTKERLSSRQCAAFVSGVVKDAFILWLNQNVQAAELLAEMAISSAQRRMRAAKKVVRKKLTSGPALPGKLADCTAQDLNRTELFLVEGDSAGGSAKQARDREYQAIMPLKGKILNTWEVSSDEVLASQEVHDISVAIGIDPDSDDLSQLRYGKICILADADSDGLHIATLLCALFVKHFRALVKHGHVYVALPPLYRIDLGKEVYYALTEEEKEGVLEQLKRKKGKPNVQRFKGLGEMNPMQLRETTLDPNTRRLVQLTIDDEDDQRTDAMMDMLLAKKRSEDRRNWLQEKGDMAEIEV

E. coli imp = assay: microbe, parasite or virus in culture; settings: Escherichia coli, read-out: MIC E. coli imp BAS3023
Method: as §2

[7] = biological target: T2, E. coli DNA topoisomerase IV (Escherichia coli (strain K12), UniProt P0AFI2+P20083); assay: SDFQ-based DNA relaxation assay with E. coli DNA topoisomerase IV; format: biochemical
T2 sequence (P0AFI2 whole entry, looked up): as the sequence (P0AFI2 whole entry, looked up) above
T2 sequence (P20083 whole entry, looked up): as the sequence (P20083 whole entry, looked up) above
Method: (§1) Relaxation assays by E. coli DNA topoisomerase IV and the ATPase assays were performed. […] Lane 1 is supercoiled plasmid pAB1. […] The supercoiled, fluorescently-labeled plasmid pAB1_FL905 was used.

[8] = biological target: T2, E. coli DNA topoisomerase IV; assay: ATP hydrolysis activity of E. coli DNA topoisomerase IV; format: biochemical; settings: 100 µM
Method: as §1

[9] = biological target: human DNA topoisomerase I (Homo sapiens (Human), UniProt P11387); assay: Human DNA topoisomerase I inhibition; format: biochemical; settings: gallates at 100 µM
Chain of human DNA topoisomerase I (P11387 whole entry): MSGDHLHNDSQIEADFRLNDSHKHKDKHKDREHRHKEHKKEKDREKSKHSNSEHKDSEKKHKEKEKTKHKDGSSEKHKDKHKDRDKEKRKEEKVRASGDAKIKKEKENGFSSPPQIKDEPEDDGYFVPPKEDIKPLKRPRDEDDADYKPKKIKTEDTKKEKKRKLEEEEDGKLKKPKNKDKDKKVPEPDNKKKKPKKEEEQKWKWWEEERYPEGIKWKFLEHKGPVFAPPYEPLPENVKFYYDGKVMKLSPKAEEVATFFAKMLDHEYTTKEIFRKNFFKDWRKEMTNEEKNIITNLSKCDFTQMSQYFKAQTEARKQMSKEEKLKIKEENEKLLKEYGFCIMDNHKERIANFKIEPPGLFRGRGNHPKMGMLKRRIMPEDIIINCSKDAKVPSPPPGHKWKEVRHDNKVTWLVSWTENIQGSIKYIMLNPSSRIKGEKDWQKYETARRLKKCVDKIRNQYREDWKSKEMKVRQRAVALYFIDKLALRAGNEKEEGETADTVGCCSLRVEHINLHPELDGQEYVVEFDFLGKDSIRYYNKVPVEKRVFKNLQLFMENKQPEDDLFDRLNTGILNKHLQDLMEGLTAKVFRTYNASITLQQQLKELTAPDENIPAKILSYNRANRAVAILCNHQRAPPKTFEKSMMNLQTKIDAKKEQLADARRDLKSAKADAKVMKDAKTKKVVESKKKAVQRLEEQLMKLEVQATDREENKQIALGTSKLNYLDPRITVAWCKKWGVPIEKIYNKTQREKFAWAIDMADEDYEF

E. coli DNA gyrase [10] = biological target: T1, E. coli DNA gyrase; assay: SDFQ-based DNA gyrase inhibition assay; format: biochemical; settings: Table 8; read-out: IC50 Gyrase SDFQ
Method: 100 ng of DNA gyrase was used to supercoil the rx pAB1_FL905 in the presence of different concentrations of a gyrase inhibitor. […] The IC50 values were estimated by nonlinear fitting of the following equation: […]
where F is the fluorescence intensity at the x concentration of an min inhibitor. Fmax and Fmin are the maximum and minimum fluorescence of the DNA sample, respectively. P is a slope parameter.

[11] = biological target: E. coli DNA topoisomerase I (Escherichia coli (strain K12), UniProt P06612); assay: E. coli DNA topoisomerase I inhibition; format: biochemical; settings: gallates at 100 µM
Chain of E. coli DNA topoisomerase I (P06612 whole entry, looked up): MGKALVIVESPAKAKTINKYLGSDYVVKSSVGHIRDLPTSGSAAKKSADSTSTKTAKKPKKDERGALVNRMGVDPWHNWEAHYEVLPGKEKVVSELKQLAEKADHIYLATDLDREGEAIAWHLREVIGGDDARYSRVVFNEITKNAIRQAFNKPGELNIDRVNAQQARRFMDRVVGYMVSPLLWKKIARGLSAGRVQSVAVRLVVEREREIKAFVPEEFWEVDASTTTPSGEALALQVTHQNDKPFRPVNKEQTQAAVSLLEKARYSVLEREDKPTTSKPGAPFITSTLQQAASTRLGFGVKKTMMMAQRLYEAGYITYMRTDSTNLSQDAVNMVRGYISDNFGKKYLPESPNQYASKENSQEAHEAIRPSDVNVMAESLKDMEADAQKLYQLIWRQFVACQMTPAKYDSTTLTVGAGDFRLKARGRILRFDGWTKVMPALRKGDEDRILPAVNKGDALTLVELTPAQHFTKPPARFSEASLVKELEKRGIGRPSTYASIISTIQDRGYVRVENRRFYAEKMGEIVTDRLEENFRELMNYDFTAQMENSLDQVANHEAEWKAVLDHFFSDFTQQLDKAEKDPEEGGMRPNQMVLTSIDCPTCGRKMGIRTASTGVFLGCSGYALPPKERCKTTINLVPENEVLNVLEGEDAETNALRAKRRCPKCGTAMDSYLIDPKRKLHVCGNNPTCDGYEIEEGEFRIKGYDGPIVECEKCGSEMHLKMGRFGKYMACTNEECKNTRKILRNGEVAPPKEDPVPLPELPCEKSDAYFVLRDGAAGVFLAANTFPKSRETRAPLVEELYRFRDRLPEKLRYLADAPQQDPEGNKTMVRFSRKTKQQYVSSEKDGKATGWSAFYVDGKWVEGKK

E. coli DNA gyrase [12] = biological target: T1, E. coli DNA gyrase; assay: E. coli DNA gyrase ATPase assay; format: biochemical
Method: E. coli DNA gyrase ATPase assays were performed in 60 µL of 1 ×gyrase ATPase buffer (10 mM Tris.HCl (pH 7.5), 0.2 mM EDTA, 1 mM magnesium chloride, 1 mM DTT, and 2% (w/v) glycerol) containing 50 nM E. coli DNA gyrase, 200 ng rx pAB1, 0.8 mM Phosphoenol pyruvate, 1.2 units of Pyruvate kinase, 1.7 units of lactate dehydrogenase, and 0.4 mM of NADH at 37° C. After the reaction mixtures are incubated on ice for 5 minutes, 2 mM of ATP is added to initiate the reaction. Absorbance at OD340nm is monitored for up to 30 minutes at 37° C. in a spectrophotometer.

B. subtilis (ATCC 6633) = assay: Minimum inhibitory concentration, broth microdilution; settings: Bacillus subtilis, ATCC6633, read-out: MIC B. subtilis ATCC 6633
[13] = biological target: T2, E. coli DNA topoisomerase IV; assay: E. coli DNA topoisomerase IV relaxation assay (gel-based); format: biochemical
Method: as §1

[14] = biological target: human DNA topoisomerase IIα (Homo sapiens (Human), UniProt P11388); assay: Agarose gel-based inhibition assay against human DNA topoisomerase IIα; format: biochemical; settings: gallates at 100 µM
Chain of human DNA topoisomerase IIα (P11388 whole entry): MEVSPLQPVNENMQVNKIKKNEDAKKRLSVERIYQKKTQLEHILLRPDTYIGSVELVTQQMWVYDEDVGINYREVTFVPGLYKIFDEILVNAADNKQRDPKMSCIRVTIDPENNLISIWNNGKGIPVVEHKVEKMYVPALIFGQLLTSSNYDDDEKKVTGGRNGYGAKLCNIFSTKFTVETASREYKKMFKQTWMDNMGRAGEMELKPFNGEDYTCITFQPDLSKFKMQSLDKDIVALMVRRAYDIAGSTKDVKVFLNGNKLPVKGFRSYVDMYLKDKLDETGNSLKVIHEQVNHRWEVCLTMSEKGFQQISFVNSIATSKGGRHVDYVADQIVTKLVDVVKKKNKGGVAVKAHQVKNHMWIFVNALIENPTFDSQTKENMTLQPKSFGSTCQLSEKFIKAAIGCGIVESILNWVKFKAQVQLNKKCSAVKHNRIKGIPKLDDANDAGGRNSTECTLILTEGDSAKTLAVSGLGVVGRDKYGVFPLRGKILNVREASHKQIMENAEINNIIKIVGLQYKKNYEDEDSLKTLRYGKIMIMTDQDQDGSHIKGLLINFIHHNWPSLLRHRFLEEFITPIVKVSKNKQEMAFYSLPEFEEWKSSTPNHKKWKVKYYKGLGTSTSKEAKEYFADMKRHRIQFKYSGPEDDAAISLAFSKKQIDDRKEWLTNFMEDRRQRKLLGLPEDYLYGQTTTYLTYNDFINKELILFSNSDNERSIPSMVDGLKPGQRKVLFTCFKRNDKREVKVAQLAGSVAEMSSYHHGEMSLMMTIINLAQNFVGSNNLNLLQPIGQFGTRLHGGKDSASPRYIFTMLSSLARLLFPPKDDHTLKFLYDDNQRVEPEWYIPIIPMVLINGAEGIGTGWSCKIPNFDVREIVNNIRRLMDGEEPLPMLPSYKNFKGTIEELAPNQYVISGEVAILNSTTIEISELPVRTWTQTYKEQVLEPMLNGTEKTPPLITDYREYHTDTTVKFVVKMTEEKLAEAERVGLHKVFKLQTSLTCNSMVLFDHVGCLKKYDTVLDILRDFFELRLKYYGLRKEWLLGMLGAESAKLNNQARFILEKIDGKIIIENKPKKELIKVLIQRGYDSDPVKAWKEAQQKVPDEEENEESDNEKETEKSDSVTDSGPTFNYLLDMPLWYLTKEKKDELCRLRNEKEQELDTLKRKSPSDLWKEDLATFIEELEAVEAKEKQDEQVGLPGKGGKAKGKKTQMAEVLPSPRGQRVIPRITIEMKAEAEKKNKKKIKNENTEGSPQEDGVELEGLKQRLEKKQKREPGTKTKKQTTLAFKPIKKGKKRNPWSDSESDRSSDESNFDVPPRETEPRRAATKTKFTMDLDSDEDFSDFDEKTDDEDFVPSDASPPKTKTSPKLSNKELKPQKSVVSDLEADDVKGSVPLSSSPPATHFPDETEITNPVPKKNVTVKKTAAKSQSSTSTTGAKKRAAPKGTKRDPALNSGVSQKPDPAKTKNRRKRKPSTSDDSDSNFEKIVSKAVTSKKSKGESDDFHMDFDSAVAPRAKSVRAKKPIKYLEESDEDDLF

MRSA = assay: Minimum inhibitory concentration, broth microdilution; settings: Staphylococcus aureus
Method: as §2

## C[n+]1c(-c2ccc(C=NNC(=O)c3ccc(C(=O)NN=Cc4ccc(-c5cn6ccccc6[n+]5C)cc4)cc3)cc2)cn2ccccc21 [Compound 229]
In vitro [1]
  IC50: > 200 µM
E. coli DNA gyrase [2]
  inhibition of E. coli DNA gyrase activities: inhibits
M. abscessus
  MIC: 10.1 µM
S. aureus (ATCC 14775); ATCC14775, read-out: MIC (µM) Sa
  MIC: > 200 µM
E. coli (ATCC 25922); E. coli strain ATCC25922
  MIC (µM) Ec: 12.5 µM
E. coli (ATCC 25922); ATCC25922, read-out: MIC (µM) Ec, E. coli strain ATCC25922
  MIC: 6.25 to 12.5 µM
E. coli DNA gyrase [3]
  E. coli DNA gyrase-mediated DNA breaks and nicking: enhances the E. coli gyrase-mediated DNA nicking; also recorded: induces DNA nicking
CDF1 mice
  survival: 100%
[4]
  cytotoxicity against the NCI panel of 60 cancer cell lines: no cytotoxicity
Mtb
  MIC: 7.1 µM
In vitro [5]
  IC50: > 200 µM
E. coli DNA gyrase [6]; 50 µM of compounds
  inhibition of E. coli DNA gyrase activities: completely inhibited
E. coli DNA gyrase [6]; 200 µM of compounds
  inhibition of E. coli DNA gyrase activities: completely inhibited
E. coli DNA gyrase [6]
  IC50: 16 µM
Mtb DNA gyrase
  inhibition of Mtb DNA gyrase activities: potently inhibits
Mtb DNA gyrase; Table 10, read-out: IC50 (µM) Mtb gyrase
  IC50: ~2.6 µM and 2.6 µM
Mtb gyrase
  Mtb gyrase-mediated DNA nicking and double-stranded breaks: significantly enhances the gyrase-mediated DNA nicking and double-stranded breaks

## O=C(O)c1cc(O)c(O)c(OC(=O)c2cc(O)c(O)c(O)c2)c1 [Digallic acid, digallic acid]
E. coli topoisomerase IV
  IC50: ~4 µM
S. aureus (ATCC 14775); ATCC14775, read-out: MIC S. aureus ATCC 14775
  MIC: 64 µg/mL and 200 µM
E. coli (ATCC 25922); ATCC25922, read-out: MIC E coli ATCC 25922, Table 9
  MIC: > 200 µM
E. coli imp
  MIC: > 200 µM
[7]
  IC50: 7.3 µM
E. coli DNA gyrase [3]
  E. coli DNA gyrase-mediated DNA breaks and nicking: not bacterial DNA gyrase poisons
[8]
  inhibition of the ATPase activities of bacterial DNA topoisomerase IV: inhibit the ATPase activities
[9]
  inhibition of human DNA topoisomerase I: do not inhibit; also recorded: did not strongly inhibit
E. coli DNA gyrase [10]
  IC50: 1.9 µM
[11]
  inhibition of E. coli DNA topoisomerase I: do not inhibit; also recorded: did not strongly inhibit
E. coli DNA gyrase [12]; AB-MECA and gallates at 100 µM
  inhibition of the ATPase activities of E. coli DNA gyrase: competitive inhibitor
E. coli DNA gyrase [12]; ATPase, ATP competitive, read-out: Ki
  Ki: 0.347 µM
B. subtilis (ATCC 6633)
  MIC: > 64 µg/mL and > 200 µM
[13]; IC50 Topoisomerase IV Gel-based, Table 8
  IC50: 8 µM
[13]; IC50 against E. coli DNA topoisomerase IV, relaxation
  IC50: ~8 µM
E. coli DNA gyrase [6]
  IC50: 2 µM
[14]
  inhibition of human DNA topoisomerase IIα: do not inhibit; also recorded: did not strongly inhibit
MRSA; ATCC33591 / MRSA, read-out: MIC MRSA ATCC 33591
  MIC: 200 µM
MRSA; ATCCBAA44 / MRSA, read-out: MIC S. aureus (MRSA) ATCC BAA44
  MIC: 64 µg/mL
